Experimental data from ChEMBL document CHEMBL1201862, “PubChem BioAssay data set” (2004).
Calls of active or inactive are those of the source.

What was measured:
HeLa = assay: HeLa cell cytotoxicity, dose response, cytotoxicity control for MITF activator project, CellTiter-Glo luminescence, cherry-pick samples (AID 540259); format: functional, cell-based; conditions: Homo sapiens
Cytochrome P450 3A4 [1] = biological target: T1, Cytochrome P450 3A4 (Homo sapiens, UniProt P08684);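 further: CYP3A4 tested as one member of a cytochrome P450 panel screen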
T1 sequence (P08684 whole entry): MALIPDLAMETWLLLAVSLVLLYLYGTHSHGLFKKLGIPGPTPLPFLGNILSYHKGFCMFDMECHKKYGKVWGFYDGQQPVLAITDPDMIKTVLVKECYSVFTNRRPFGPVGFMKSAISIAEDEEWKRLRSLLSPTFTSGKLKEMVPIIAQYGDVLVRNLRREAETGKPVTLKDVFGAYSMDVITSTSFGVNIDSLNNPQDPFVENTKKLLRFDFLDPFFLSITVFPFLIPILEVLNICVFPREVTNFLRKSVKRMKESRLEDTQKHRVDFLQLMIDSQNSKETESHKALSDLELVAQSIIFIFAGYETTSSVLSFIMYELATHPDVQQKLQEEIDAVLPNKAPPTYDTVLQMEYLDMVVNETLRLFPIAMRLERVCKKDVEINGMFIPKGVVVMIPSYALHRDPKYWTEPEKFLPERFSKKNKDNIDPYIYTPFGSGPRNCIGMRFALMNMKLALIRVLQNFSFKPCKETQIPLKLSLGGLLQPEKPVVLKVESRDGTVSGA

Cytochrome P450 2C19 = Cytochrome P450 2C19 (Homo sapiens, UniProt P33261); assay: Cytochrome panel assay with activity outcomes. Panel member name: p450-cyp2c19 Compounds with AC50 equal or less than 10 uM are considered active; format: functional
Sequence of Cytochrome P450 2C19 (P33261 whole entry): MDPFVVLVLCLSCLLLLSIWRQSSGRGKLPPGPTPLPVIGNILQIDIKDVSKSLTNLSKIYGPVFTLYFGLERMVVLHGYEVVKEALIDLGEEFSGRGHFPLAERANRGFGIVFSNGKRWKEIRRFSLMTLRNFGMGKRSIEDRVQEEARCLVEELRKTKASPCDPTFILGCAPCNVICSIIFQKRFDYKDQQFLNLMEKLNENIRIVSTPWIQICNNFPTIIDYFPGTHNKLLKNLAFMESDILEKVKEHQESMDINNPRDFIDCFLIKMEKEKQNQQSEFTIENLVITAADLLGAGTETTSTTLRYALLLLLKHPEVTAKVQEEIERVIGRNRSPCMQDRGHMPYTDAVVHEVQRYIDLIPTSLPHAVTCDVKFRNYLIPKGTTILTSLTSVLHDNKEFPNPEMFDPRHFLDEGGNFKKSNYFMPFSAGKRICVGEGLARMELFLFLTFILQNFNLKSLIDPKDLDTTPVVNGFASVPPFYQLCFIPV

Cytochrome P450 2C9 = Cytochrome P450 2C9 (Homo sapiens, UniProt P11712)
Sequence of Cytochrome P450 2C9 (P11712 whole entry): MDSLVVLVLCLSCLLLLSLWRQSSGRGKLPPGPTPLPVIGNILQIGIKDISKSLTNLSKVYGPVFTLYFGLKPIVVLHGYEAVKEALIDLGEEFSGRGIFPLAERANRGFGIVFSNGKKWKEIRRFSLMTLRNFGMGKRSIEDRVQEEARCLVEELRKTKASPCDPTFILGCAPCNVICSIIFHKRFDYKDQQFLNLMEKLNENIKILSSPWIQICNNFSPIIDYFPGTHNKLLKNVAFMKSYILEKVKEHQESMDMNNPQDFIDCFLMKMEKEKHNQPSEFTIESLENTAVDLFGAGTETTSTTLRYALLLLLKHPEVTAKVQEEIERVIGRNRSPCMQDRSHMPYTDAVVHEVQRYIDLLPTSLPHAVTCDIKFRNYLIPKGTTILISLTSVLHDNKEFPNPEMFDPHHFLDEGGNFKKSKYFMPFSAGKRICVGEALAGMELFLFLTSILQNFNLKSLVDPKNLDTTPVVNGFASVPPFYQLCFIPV

Vero [2] = assay: cells; format: functional; conditions: Chlorocebus sabaeus
Streptococcus = assay: Group A Streptococcus viability loss, dose response, counter-screen for streptokinase expression inhibitor project, luminescence, BacTiterGlo (AID 1915); format: functional, organism-based;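 further: potency for reduction of bacterial viability or growth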
[3] = tested on: Streptococcus sp. 'group A'; assay: growth inhibition of control SK(-) GAS strain, dose response, counter-screen for streptokinase expression inhibitor project, luminescence, kanamycin, BacTiterGlo, confirmation (AID 1900); format: functional, organism-based
Vero [4] = assay: cells; format: functional, cell-based; conditions: Chlorocebus sabaeus
[5] = biological target: T2, Polyadenylate-binding protein 1 (Homo sapiens, UniProt P11940); assay: PABP1 MLLE–PAM2 interaction inhibitors, dose response, miRNA deadenylation inhibitor project, biochemical, fluorescence polarization, Cy5-PAM2 peptide, secondary (AID 602260); format: functional; conditions: read-out: IC50_Mean
T2 sequence (P11940 whole entry): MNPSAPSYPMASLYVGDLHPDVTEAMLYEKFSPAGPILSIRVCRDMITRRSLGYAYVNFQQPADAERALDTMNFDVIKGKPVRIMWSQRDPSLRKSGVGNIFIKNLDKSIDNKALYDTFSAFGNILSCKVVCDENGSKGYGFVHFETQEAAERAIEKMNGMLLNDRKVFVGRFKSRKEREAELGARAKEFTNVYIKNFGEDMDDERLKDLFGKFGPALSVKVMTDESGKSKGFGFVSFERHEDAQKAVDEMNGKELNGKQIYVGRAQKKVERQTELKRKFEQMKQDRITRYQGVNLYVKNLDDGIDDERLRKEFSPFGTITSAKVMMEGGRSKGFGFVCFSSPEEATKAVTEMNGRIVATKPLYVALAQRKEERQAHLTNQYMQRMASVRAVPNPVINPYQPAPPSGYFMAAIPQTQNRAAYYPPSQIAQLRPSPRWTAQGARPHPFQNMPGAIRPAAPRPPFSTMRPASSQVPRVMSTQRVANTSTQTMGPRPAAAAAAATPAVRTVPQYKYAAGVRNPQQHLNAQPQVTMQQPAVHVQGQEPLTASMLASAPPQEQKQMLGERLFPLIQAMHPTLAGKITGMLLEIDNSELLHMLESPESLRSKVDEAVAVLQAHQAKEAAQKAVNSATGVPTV

[6] = biological target: T3, Heat shock factor protein 1 (Mus musculus, UniProt P38532); assay: HSF1 potentiators in luciferase reporter cells, confirmation, cell-based, NIH3T3, luminescence, dose retest (AID 435004); format: functional;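 further: stress induced by proteasome inhibitor MG132 added 30 min after compound; luciferase reporter driven by HSF1 response element in NIH3T3 cells; actives raise luminescence as potentiators of the MG132 stress response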
T3 sequence (P38532 whole entry): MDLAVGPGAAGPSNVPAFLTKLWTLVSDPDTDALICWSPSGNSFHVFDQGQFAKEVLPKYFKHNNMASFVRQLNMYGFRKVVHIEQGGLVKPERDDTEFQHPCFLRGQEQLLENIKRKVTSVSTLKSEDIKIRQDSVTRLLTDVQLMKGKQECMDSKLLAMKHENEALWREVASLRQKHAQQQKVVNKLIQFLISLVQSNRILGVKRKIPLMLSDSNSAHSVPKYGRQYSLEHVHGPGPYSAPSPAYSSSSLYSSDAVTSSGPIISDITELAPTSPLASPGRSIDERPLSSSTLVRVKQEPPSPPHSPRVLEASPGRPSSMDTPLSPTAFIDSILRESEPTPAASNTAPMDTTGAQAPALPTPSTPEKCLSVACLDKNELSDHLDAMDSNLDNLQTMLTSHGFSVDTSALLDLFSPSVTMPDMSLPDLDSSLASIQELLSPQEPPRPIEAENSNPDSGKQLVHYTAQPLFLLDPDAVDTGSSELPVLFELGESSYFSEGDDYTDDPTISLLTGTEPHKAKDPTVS

[7] = biological target: T2, Polyadenylate-binding protein 1; assay: PABP1 MLLE–PAM2 binding inhibitor potency, dose response, biochemical, fluorescence polarization, FITC-PAM2 peptide (AID 602259); format: functional; conditions: read-out: IC50_Mean
Cytochrome P450 3A4 [8] = biological target: T1, Cytochrome P450 3A4; remark: listed apart in the source
Cytochrome P450 2D6 = Cytochrome P450 2D6 (Homo sapiens, UniProt P10635);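 further: CYP2D6 member of a cytochrome P450 panel assay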
Sequence of Cytochrome P450 2D6 (P10635 whole entry, the tested form may be a part): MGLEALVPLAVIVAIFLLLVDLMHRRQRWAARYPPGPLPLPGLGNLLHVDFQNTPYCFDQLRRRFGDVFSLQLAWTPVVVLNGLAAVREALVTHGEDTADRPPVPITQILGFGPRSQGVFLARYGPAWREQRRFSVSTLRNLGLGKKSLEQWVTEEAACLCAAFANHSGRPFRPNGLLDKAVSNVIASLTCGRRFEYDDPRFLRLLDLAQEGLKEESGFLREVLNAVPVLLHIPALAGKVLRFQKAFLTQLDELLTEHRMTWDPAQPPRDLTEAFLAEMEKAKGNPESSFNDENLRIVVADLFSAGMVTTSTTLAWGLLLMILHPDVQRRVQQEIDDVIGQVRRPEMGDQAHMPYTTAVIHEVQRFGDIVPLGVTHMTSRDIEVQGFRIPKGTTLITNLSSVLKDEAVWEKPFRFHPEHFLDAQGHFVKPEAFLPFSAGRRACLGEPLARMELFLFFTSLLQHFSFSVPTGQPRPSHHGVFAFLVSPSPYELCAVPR

[9] = biological target: T4, RNA-binding protein pos-1 (Caenorhabditis elegans, UniProt G5EF15); assay: inhibitors of POS-1/mex-3 RNA binding, dose response, biochemical, fluorescence polarization (AID 1964);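 further: purified POS-1 fused to maltose binding protein made in E. coli; potency of compounds blocking POS-1 binding to fluorescent RNA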
T4 sequence (G5EF15 whole entry): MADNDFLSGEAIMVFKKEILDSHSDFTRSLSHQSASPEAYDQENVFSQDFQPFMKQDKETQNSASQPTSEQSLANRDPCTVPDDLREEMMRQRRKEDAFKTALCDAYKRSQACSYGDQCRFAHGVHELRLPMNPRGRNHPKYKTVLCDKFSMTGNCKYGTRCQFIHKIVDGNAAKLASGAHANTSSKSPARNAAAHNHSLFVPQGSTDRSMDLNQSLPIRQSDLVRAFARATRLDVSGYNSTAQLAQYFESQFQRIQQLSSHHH

[10] = biological target: T5, Zinc finger protein mex-5 (Caenorhabditis elegans, UniProt Q9XUB2); assay: MEX-5/TCR-2 RNA interaction inhibitors, dose response, biochemical, C. elegans, fluorescence polarization (AID 1960)
T5 sequence (Q9XUB2 whole entry): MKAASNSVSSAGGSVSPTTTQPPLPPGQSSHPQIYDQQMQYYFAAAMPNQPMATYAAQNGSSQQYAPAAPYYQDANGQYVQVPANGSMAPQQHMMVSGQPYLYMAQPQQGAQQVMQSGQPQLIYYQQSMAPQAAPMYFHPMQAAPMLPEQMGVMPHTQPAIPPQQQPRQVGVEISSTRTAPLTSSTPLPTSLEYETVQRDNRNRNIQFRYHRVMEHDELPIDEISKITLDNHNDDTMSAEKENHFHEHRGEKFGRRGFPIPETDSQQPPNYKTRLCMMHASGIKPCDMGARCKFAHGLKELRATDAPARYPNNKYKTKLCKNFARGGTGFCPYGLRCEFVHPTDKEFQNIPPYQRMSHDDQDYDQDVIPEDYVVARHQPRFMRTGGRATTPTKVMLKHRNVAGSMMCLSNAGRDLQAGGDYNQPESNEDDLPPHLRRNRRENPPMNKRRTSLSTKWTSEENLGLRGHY

Paired box protein Pax-8 = Paired box protein Pax-8 (Homo sapiens, UniProt Q06710); assay: inhibitors of PAX8-driven TPO luciferase reporter, dose response, RMG-I cells, cherry-pick (AID 687027); format: functional, cell-based;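 further: luciferase reporter driven by Pax8 target thyroperoxidase promoter measured by SteadyGlo luminescence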
Sequence of Paired box protein Pax-8 (Q06710 whole entry): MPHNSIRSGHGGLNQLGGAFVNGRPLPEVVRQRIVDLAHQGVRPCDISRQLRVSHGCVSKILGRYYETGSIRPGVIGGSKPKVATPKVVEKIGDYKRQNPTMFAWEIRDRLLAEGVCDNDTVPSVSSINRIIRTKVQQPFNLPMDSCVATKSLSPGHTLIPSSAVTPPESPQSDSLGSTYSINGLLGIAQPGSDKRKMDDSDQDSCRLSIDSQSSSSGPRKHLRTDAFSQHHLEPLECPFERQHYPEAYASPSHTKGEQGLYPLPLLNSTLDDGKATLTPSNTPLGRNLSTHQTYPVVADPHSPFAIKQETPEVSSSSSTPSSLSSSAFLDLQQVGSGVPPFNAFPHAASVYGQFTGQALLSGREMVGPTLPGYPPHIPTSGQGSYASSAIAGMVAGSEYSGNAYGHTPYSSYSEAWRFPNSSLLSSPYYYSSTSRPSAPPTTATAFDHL

[11] = Luminescence Cell-Based Dose Response HTS to Identify Inhibitors of 5'UTR Stem-Loop Driven Prion Protein mRNA Translation in H4 Neuroglioblastoma Cells. [Related pubchem assays: 1827 (Project Summary), 1813 (Primary HTS)]; format: functional
[12] = inhibitors of SNCA 5'UTR-driven reporter translation, confirmation, H4 neuroglioma cells, luminescence (AID 1988); format: functional, cell-based
[13] = inhibitors of firefly luciferase expression or activity, dose response, H4 neuroglioma cells, luminescence (AID 1990); format: functional, cell-based
[14] = biological target: T6, Sentrin-specific protease 7 (Homo sapiens, UniProt Q9BQF6); format: functional;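 further: Luminescence-based dose-response confirmation of ultra-high-throughput screening hits, measuring inhibition of SENP7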
T6 sequence (Q9BQF6 whole entry): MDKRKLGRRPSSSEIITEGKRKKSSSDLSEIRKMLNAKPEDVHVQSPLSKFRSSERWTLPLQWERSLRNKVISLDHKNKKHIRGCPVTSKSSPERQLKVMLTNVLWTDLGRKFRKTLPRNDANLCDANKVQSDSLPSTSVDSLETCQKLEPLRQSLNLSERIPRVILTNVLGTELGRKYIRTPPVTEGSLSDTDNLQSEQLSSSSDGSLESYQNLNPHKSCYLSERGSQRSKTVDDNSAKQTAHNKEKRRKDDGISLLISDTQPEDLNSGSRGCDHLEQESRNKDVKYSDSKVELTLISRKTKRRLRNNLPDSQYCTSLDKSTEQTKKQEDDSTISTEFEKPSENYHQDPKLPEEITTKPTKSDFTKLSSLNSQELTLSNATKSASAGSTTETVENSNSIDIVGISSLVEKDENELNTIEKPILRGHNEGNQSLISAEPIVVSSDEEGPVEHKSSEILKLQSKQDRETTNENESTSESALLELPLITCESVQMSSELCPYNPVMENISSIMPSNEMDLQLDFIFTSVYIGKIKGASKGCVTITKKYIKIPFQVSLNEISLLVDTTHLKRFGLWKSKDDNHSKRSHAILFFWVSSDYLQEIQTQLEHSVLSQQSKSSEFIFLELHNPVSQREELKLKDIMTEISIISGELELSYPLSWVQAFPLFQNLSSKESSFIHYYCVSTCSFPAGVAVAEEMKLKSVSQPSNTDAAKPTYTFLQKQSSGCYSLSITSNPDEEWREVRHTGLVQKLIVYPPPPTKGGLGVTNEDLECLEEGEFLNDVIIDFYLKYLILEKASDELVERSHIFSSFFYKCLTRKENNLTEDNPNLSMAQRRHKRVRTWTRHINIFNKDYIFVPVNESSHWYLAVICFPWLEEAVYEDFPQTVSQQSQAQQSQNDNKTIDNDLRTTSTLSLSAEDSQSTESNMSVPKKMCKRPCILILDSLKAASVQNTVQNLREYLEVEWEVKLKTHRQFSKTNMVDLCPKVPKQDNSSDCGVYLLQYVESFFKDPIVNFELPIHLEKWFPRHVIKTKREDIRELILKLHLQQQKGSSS

[15] = biological target: T7, Sentrin-specific protease 8 (Homo sapiens, UniProt Q96LD8); format: functional;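 further: luminescence read-out of SENP8 inhibition, dose-response confirmation following an ultra-high-throughput screen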
T7 sequence (Q96LD8 whole entry): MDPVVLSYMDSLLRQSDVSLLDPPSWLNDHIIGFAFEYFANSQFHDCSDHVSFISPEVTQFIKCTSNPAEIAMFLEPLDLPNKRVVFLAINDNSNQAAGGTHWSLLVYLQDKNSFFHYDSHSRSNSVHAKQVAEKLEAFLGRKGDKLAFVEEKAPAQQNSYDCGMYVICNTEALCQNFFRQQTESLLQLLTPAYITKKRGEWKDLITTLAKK

Caspase-3 = biological target: T8, Caspase-3 (Homo sapiens, UniProt P42574); format: functional;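 further: Dose-response selectivity test against caspase-3 for candidate inhibitors of sentrin-specific proteases (SENPs)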
T8 sequence (P42574 whole entry): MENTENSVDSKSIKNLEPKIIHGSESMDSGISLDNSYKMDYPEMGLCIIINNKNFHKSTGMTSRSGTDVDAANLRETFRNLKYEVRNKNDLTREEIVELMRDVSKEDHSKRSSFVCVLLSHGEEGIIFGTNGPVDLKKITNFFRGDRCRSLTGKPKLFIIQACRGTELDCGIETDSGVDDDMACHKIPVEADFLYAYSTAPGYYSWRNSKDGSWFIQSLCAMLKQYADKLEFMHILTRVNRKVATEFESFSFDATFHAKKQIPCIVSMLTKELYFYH

[16] = biological target: T9, Sentrin-specific protease 6 (Homo sapiens, UniProt Q9GZR1); format: functional;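 further: Luminescence-based dose-response confirmatory assay of SENP6 inhibition, following up an ultra-high-throughput screen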
T9 sequence (Q9GZR1 whole entry): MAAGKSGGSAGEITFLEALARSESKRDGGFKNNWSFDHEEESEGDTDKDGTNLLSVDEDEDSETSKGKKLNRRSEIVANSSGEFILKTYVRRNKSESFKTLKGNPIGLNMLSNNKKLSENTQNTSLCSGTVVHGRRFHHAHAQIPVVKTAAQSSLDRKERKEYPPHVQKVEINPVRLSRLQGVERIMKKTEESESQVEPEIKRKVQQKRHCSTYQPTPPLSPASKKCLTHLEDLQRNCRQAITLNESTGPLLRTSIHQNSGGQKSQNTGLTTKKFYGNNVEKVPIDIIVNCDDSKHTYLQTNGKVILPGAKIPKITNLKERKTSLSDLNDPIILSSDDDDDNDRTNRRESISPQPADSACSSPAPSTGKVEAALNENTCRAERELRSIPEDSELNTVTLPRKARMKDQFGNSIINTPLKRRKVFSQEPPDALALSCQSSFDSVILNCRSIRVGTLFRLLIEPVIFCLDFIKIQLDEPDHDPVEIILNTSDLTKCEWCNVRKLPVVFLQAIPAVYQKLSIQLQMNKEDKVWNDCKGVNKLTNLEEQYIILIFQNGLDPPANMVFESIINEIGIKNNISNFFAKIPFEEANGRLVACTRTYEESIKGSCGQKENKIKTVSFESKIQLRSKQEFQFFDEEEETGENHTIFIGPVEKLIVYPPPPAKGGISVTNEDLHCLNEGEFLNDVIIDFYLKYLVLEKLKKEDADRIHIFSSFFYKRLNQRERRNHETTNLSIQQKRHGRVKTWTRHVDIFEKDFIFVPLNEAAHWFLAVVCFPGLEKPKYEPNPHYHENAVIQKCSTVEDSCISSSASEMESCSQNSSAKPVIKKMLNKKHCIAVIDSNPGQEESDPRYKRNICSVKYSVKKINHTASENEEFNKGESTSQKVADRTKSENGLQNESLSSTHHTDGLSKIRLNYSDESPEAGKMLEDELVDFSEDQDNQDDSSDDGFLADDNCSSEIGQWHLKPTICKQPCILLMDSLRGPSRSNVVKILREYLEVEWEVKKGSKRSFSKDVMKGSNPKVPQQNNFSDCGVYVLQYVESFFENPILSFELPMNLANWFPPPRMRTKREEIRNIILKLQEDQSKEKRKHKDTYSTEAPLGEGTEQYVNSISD

Cc1cc2ncc(-c3ccc(Cl)cc3)c(N)n2n1
AC50 (HeLa): 68.3 µM (active)

CCC1Oc2ccccc2N(CC(=O)NCCCN2CCCCC2C)C1=O (stereo unspecified)
AC50 (Cytochrome P450 3A4 [1]): 20 µM (inconclusive) | AC50 (Cytochrome P450 2C19): 2.24 µM (inconclusive) | AC50 (Cytochrome P450 2C9): inconclusive

COc1ccc(CC(=O)NC(=S)NNC(=O)COc2c(C)cccc2C)cc1
CC50 (Vero [2]): > 25 µM (active) | EC50 (Streptococcus): 6.88 µM (active) | EC50 [3]: 0.124 µM (active) | IC50 (Vero [4]): 11.4 µM (active)

CCN(CC)S(=O)(=O)c1ccc(C)c(NC(S)=Nc2cccc(S(=O)(=O)N3CCCCCC3)c2)c1
CC50 (Vero [2]): 18.7 µM (active) | IC50 [5]: > 66 µM (inactive) | EC50 [6]: > 260 µM (inactive) | IC50 (Vero [4]): > 25 µM (active) | IC50 [7]: > 66 µM (inactive)

CC(C)(C)c1ccc(OCC(=O)NNC(=O)CCc2ccccc2)cc1
AC50 (Cytochrome P450 3A4 [8]): inconclusive | AC50 (Cytochrome P450 2C19): 14.1 µM (inconclusive) | AC50 (Cytochrome P450 2C9): inconclusive

CCCC(=O)Nc1ccc(C(=O)Nc2cc(C(F)(F)F)ccc2Cl)cc1
AC50 (Cytochrome P450 3A4 [1]): 15.8 µM (inconclusive) | AC50 (Cytochrome P450 2D6): 8.91 µM (inconclusive) | AC50 (Cytochrome P450 2C9): inconclusive

c1ccc2oc(CCc3nc4ccccc4o3)nc2c1
EC50 [9]: > 300 µM (not active) | AC50 (HeLa): 56.3 µM (active) | EC50 [10]: > 300 µM (not active)

CCCSc1ccc(C(=O)Nc2ccc(F)cc2F)cn1
AC50 (HeLa): 88.6 µM (active)

Cc1cc(O)c(C(=O)/C=C/c2ccc(Cl)cc2)c(=O)o1
CC50 (Vero [2]): 17.6 µM (active) | IC50 (Vero [4]): > 25 µM (active)

CC1=CC(C)(C)N2C(=O)C3(NCCc4c3[nH]c3ccccc43)c3cc(C)cc1c32 (stereo unspecified)
AC50 (Paired box protein Pax-8): 7.27 µM (active) | CC50 (Vero [2]): > 25 µM (active) | EC50 [11]: > 120 µM (not active) | EC50 [12]: > 120 µM (not active) | IC50 (Vero [4]): 22.7 µM (active) | EC50 [13]: 12.2 µM (active)

Clc1ccc(COn2nnc3ccccc32)c(Cl)c1
IC50 [14]: 8.88 µM (active) | IC50 [15]: 35.3 µM (active) | IC50 (Caspase-3): 24.1 µM (active) | IC50 [16]: 31.2 µM (active) | AC50 (HeLa): 77.9 µM (active)
